Values after ≈ are worked out from the molar mass of the structure shown.
Columns and labels:
[1] = Microsome stability, mouse liver microsomes; conditions: mouse liver microsomes; third value of h/r/m
[2] = Solubility in DMEM/10% FBS; format: physicochemical
CDK4/cyclin D1 = CDK4/cyclin D1 (Homo sapiens, UniProt P11802); assay: KINOMEscan kinase binding; conditions: 10 μM; % of kinase remaining bound to bead-bound ligand
FLT3 [3] = target: T1, FLT3 (Homo sapiens, UniProt P36888); assay: Off-target kinase inhibition, Reaction Biology Corporation; format: biochemical; conditions: read-out: IC50 for inhibition of off-target kinase FLT3; data obtained by Reaction Biology Corporation
T1 sequence (P36888 27-993): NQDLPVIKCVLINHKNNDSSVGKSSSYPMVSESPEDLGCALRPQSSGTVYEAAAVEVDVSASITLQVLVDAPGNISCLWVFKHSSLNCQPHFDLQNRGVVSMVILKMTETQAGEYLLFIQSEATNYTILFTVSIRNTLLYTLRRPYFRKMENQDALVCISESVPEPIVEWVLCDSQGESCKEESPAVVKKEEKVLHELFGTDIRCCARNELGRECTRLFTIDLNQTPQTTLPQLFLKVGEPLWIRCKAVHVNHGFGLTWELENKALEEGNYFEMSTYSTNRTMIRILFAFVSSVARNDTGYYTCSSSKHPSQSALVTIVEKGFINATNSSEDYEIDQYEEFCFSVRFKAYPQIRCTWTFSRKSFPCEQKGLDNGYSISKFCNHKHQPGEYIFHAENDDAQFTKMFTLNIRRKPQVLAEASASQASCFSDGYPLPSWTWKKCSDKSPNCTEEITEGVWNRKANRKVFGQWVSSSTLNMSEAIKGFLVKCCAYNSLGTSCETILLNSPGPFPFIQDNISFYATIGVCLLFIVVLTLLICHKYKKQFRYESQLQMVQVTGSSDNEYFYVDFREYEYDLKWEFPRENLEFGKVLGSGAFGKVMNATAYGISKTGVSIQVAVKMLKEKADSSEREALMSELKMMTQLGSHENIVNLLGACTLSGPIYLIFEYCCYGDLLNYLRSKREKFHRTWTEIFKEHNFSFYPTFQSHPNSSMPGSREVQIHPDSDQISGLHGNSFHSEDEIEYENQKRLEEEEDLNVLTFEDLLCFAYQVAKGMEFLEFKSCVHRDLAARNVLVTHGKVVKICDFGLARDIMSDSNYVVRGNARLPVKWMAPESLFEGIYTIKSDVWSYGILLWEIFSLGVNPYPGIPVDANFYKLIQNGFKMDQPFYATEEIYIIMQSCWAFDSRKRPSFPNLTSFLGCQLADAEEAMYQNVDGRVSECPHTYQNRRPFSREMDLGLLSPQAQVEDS

CSNK1D [CK1δ] = CSNK1D [CK1δ] (Homo sapiens, UniProt P48730); assay: KINOMEscan kinase binding; conditions: 10 μM; % of kinase remaining bound to bead-bound ligand
CDK7 = CDK7 (Homo sapiens, UniProt P50613); assay: KINOMEscan kinase binding; conditions: 10 μM; % of kinase remaining bound to bead-bound ligand
FLT3 (D835Y) = FLT3 (D835Y) (Homo sapiens, UniProt P36888, D835Y); assay: KINOMEscan kinase binding; conditions: 10 μM; % of kinase remaining bound to bead-bound ligand
[4] = Microsome stability, rat liver microsomes; conditions: rat liver microsomes; second value of h/r/m
BMP2K = BMP2K (Homo sapiens, UniProt Q9NSY1); assay: KINOMEscan kinase binding; conditions: 10 μM; % of kinase remaining bound to bead-bound ligand
Solubility in PBS buffer = format: physicochemical
ROCK2 = ROCK2 (Homo sapiens, UniProt O75116); assay: KINOMEscan kinase binding; conditions: 10 μM; % of kinase remaining bound to bead-bound ligand
RIOK3 = RIOK3 (Homo sapiens, UniProt O14730); assay: KINOMEscan kinase binding; conditions: 10 μM; % of kinase remaining bound to bead-bound ligand
CK1δ [5] = target: T2, CK1δ (Homo sapiens, UniProt P48730); assay: CK1δ inhibition, Reaction Biology Corp.; format: biochemical; conditions: read-out: IC50 CK1δ; data obtained by Reaction Biology Corp.
PRKCQ = PRKCQ (Homo sapiens, UniProt Q04759); assay: KINOMEscan kinase binding; conditions: 10 μM; % of kinase remaining bound to bead-bound ligand
CDK13 = CDK13 (Homo sapiens, UniProt Q14004); assay: KINOMEscan kinase binding; conditions: 10 μM; % of kinase remaining bound to bead-bound ligand
FLT3 (N841L) = assay: KINOMEscan kinase binding; conditions: 10 μM; % of kinase remaining bound to bead-bound ligand
MARK2 = MARK2 (Homo sapiens, UniProt Q7KZI7); assay: KINOMEscan kinase binding; conditions: 10 μM; % of kinase remaining bound to bead-bound ligand
[6] = tested on: human melanoma A375 cell line; assay: MTT assay against A375 melanoma cells; format: cell-based; conditions: read-out: MTT assay A375 EC50; human A375 melanoma cell line
CK1δ [7] = target: T2, CK1δ; assay: Kinetic analysis; format: biochemical; conditions: ATP competitive
MAST1 = MAST1 (Homo sapiens, UniProt Q9Y2H9); assay: KINOMEscan kinase binding; conditions: 10 μM; % of kinase remaining bound to bead-bound ligand
[8] = Microsome stability, human liver microsomes; conditions: human liver microsomes; first value of h/r/m
LATS2 = LATS2 (Homo sapiens, UniProt Q9NRM7); assay: KINOMEscan kinase binding; conditions: 10 μM; % of kinase remaining bound to bead-bound ligand
Mouse PK studies = format: in vivo; conditions: IV dosing, 1 mg/kg, 10/10/80 DMSO/Tween/water
NLK = NLK (Homo sapiens, UniProt Q9UBE8); assay: KINOMEscan kinase binding; conditions: 10 μM; % of kinase remaining bound to bead-bound ligand
CSNK1E [CK1ε] = CSNK1E [CK1ε] (Homo sapiens, UniProt P49674); assay: KINOMEscan kinase binding; conditions: 10 μM; % of kinase remaining bound to bead-bound ligand
CSNK1A1 = CSNK1A1 (Homo sapiens, UniProt P48729); assay: KINOMEscan kinase binding; conditions: 10 μM; % of kinase remaining bound to bead-bound ligand
FLT3 [9] = target: T1, FLT3; assay: KINOMEscan kinase binding; conditions: 10 μM; % of kinase remaining bound to bead-bound ligand
FLT3 (D835H) = FLT3 (D835H) (Homo sapiens, UniProt P36888, D835H); assay: KINOMEscan kinase binding; conditions: 10 μM; % of kinase remaining bound to bead-bound ligand
CSNK1A1L = CSNK1A1L (Homo sapiens, UniProt Q8N752); assay: KINOMEscan kinase binding; conditions: 10 μM; % of kinase remaining bound to bead-bound ligand
FLT3 (ITD) = assay: KINOMEscan kinase binding; conditions: 10 μM; % of kinase remaining bound to bead-bound ligand
CDK4/cyclin D3 = CDK4/cyclin D3 (Homo sapiens, UniProt P11802); assay: KINOMEscan kinase binding; conditions: 10 μM; % of kinase remaining bound to bead-bound ligand
FLT3 (K663Q) = FLT3 (K663Q) (Homo sapiens, UniProt P36888, K663Q); assay: KINOMEscan kinase binding; conditions: 10 μM; % of kinase remaining bound to bead-bound ligand
MELK = MELK (Homo sapiens, UniProt Q14680); assay: KINOMEscan kinase binding; conditions: 10 μM; % of kinase remaining bound to bead-bound ligand
442 kinases = assay: DiscoverRX KINOMEscan analysis of 442 kinases; format: binding; conditions: 10 μM, KINOMEscan of 442 kinases
TAOK3 = TAOK3 (Homo sapiens, UniProt Q9H2K8); assay: KINOMEscan kinase binding; conditions: 10 μM; % of kinase remaining bound to bead-bound ligand

RIOK3, sequence (O14730 whole entry): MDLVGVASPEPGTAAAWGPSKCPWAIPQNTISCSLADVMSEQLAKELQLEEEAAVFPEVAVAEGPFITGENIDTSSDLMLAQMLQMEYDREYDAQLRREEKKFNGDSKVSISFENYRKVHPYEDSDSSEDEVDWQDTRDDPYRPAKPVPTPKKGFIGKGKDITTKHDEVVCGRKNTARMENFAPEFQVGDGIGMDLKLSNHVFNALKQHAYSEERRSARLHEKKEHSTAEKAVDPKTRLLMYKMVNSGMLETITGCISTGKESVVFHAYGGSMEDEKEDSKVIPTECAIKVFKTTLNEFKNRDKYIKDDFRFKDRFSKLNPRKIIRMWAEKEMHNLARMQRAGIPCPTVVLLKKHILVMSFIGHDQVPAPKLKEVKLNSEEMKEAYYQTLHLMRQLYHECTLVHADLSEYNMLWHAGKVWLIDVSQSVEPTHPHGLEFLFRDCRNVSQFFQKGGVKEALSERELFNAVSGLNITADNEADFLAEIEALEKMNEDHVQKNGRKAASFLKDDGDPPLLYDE
MARK2, sequence (Q7KZI7 whole entry): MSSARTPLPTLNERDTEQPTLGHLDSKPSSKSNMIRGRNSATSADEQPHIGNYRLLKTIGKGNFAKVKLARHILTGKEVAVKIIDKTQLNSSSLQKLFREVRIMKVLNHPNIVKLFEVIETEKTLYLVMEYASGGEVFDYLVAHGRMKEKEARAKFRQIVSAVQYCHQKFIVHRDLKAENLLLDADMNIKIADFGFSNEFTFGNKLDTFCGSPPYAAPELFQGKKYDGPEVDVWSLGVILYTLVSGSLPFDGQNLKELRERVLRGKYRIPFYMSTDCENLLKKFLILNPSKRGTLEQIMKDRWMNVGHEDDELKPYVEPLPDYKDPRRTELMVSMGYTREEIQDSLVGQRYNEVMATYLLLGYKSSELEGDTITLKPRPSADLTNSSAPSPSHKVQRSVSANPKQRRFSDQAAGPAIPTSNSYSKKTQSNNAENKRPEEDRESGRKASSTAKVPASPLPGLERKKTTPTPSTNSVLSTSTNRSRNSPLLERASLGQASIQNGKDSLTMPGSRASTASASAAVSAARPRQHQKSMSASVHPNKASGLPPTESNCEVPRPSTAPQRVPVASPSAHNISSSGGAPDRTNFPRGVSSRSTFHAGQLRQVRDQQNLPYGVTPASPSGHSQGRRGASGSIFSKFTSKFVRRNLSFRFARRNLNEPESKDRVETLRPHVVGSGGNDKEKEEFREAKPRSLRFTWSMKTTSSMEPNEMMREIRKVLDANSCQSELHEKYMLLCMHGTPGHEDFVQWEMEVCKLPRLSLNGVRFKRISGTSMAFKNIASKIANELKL
CSNK1A1, sequence (P48729 whole entry): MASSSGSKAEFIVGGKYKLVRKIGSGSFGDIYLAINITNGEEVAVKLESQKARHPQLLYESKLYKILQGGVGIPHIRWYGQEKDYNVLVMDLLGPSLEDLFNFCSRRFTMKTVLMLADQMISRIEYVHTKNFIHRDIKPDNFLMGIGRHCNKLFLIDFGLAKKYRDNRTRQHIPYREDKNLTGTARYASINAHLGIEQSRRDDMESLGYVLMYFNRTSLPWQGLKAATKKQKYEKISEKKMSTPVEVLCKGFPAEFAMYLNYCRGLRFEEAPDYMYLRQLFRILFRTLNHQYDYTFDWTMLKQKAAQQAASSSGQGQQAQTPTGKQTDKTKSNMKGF
PRKCQ, sequence (Q04759 whole entry): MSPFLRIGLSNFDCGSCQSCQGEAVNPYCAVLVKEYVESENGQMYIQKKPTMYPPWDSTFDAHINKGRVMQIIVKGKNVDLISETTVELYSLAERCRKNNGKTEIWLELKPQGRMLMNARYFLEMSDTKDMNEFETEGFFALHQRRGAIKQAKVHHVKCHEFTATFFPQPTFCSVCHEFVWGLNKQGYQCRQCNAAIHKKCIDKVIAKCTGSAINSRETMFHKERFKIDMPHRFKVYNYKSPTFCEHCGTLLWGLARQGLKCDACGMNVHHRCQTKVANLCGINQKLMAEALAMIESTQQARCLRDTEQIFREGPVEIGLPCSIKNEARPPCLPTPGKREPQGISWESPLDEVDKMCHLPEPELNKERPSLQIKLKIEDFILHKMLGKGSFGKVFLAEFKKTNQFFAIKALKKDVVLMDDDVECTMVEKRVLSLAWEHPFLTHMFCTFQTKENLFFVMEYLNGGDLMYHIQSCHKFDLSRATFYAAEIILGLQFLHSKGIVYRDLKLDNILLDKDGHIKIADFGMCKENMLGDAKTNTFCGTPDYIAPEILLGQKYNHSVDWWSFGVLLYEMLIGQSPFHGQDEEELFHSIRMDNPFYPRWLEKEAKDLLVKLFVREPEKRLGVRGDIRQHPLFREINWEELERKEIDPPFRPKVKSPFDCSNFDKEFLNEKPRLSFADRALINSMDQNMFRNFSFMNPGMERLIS
CDK13, sequence (Q14004 whole entry): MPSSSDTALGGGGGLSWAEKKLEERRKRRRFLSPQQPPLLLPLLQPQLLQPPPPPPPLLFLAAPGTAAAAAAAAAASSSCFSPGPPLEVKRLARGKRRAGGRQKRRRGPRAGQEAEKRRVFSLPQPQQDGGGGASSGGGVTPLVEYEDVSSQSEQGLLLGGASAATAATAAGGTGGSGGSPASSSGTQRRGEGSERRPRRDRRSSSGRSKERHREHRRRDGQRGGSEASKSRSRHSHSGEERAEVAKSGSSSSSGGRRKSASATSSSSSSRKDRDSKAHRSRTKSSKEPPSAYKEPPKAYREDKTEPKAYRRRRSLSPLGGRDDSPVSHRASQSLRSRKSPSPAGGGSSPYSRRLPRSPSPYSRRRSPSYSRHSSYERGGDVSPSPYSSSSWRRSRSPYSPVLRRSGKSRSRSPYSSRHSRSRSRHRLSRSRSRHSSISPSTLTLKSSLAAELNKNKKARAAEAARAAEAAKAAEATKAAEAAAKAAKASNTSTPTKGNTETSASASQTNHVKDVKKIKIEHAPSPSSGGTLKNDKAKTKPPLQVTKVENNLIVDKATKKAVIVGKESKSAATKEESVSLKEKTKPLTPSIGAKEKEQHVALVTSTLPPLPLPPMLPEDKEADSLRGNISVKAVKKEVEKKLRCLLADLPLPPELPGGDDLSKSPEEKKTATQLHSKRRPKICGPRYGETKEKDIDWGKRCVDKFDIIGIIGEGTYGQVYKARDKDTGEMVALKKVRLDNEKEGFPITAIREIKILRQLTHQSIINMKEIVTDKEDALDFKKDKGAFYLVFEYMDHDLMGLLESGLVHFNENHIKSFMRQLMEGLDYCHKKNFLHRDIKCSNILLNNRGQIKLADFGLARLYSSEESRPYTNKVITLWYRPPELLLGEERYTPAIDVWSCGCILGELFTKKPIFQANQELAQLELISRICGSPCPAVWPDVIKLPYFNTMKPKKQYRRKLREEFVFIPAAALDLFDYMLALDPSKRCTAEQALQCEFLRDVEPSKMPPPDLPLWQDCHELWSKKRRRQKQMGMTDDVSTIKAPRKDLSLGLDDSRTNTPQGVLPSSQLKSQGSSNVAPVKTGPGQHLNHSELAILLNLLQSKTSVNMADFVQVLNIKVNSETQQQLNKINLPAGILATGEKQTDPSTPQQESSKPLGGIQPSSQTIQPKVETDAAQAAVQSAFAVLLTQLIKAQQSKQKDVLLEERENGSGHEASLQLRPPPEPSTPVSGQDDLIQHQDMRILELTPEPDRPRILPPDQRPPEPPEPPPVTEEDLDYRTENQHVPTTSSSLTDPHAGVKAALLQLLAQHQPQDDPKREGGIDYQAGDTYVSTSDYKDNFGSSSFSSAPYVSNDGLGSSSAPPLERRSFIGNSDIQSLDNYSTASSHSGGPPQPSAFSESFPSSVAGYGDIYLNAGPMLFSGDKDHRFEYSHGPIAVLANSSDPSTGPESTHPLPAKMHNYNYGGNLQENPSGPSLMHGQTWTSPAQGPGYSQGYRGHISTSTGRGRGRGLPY
CDK7, sequence (P50613 whole entry): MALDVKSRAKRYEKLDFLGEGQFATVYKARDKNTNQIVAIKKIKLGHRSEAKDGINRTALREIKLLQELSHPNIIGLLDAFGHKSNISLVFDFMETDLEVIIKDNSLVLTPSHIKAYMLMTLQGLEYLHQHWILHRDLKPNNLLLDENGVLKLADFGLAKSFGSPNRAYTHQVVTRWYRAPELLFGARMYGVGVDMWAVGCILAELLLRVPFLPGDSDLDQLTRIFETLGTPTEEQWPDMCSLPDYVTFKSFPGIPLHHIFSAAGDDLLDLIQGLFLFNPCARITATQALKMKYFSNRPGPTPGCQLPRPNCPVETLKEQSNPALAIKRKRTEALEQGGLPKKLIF
CSNK1A1L, sequence (Q8N752 whole entry): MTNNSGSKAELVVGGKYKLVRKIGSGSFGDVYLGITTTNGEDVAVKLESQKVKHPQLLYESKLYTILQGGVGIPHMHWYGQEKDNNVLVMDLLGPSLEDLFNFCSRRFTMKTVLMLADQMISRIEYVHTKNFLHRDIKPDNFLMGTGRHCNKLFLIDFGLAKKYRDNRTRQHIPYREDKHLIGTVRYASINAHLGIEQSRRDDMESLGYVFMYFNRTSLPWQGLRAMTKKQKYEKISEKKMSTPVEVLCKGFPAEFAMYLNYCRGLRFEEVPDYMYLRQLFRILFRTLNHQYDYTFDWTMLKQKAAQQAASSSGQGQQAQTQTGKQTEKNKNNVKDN
T2 sequence (P48730 whole entry): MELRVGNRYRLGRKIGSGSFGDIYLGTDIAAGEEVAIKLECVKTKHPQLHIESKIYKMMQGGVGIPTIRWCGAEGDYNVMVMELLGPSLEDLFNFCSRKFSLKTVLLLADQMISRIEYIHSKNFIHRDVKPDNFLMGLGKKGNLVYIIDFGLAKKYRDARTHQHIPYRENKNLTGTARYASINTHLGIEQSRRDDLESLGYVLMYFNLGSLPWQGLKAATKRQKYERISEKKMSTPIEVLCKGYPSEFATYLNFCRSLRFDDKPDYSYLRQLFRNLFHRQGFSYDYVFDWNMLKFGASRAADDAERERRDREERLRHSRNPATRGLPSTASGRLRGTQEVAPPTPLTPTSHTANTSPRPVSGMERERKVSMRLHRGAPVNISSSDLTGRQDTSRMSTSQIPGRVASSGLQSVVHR
CSNK1D [CK1δ], sequence (P48730 whole entry): as above

Structure (SMILES)	% control activity, CDK4/cyclin D1 (CDK4/cyclin D1) [%]	IC50 (FLT3 [3]) [nM]	% control activity, CDK7 (CDK7) [%]	% control activity, BMP2K (BMP2K) [%]	% control activity, RIOK3 (RIOK3) [%]	% control activity, PRKCQ (PRKCQ) [%]	% control activity, CDK13 (CDK13) [%]	% control activity, MARK2 (MARK2) [%]	EC50 [6] [nM]	% control activity, LATS2 (LATS2) [%]	AUC (Mouse PK studies) [µM·h]	Cl (Mouse PK studies) [mL/min/kg]	Cmax (Mouse PK studies) [µM]	T1/2 (Mouse PK studies) [min]	% control activity, CSNK1A1 (CSNK1A1) [%]	% control activity, FLT3 (FLT3 [9]) [%]	% control activity, CSNK1A1L (CSNK1A1L) [%]	% control activity, FLT3 (ITD) (FLT3 (ITD)) [%]	% control activity, CDK4/cyclin D3 (CDK4/cyclin D3) [%]	other results
O=[N+]([O-])c1cccc2[nH]c(CNc3nc(N4CCOCC4)nc4c3ncn4-c3ccsc3)nc12 [SR-1277]	56	305	72	6.2	9.6	100	1	100	22	100	1.26	2.8	1.2	85.2	63	3.4	9.6	3.7	56	Microsome stability T1/2 (mouse) [1]: 2 min; Solubility [2]: 1 µM (≈ 0.478 µg/mL); % control activity, CSNK1D [CK1δ] (CSNK1D [CK1δ]): 4.2%; % control activity, FLT3 (D835Y) (FLT3 (D835Y)): 11%; Microsome stability T1/2 (rat) [4]: 5 min; Solubility (Solubility in PBS buffer): 1 µM (≈ 0.478 µg/mL); % control activity, ROCK2 (ROCK2): 100%; IC50 (CK1δ [5]): 49 nM; % control activity, FLT3 (N841L) (FLT3 (N841L)): 11%; Ki (CK1δ [7]): 69 nM; % control activity, MAST1 (MAST1): 100%; Microsome stability T1/2 (human) [8]: 7 min; % control activity, NLK (NLK): 38%; % control activity, CSNK1E [CK1ε] (CSNK1E [CK1ε]): 0.5%; % control activity, FLT3 (D835H) (FLT3 (D835H)): 7.3%
Fc1cccc(-n2cnc3c(NCc4nc5c(F)c(F)ccc5[nH]4)nc(N4CCOCC4)nc32)c1 [SR-3029]	4.4	3000	38	39	100	88	100	7.3	86	26	6.35	5.5	7.3	54	22	3.7	22	19	19	% control activity, FLT3 (K663Q) (FLT3 (K663Q)): 12%; % control activity, MELK (MELK): 22%; Number of off-target kinases inhibited ≥90% (442 kinases): 6; % control activity, TAOK3 (TAOK3): 34%
